What was measured:
Assay in all cases: SPR (Biacore […]), equilibrium fit to […] model
Format in all cases: binding
[1] = biological target: T1, BGL (Boletopsis grisea lectin), recombinant wild-type rBGL (Boletopsis grisea, UniProt A0A1L2F5J1)
T1 construct: full-length 143 amino acid ORF (GenBank KT315924), expressed in E. coli, lacking N-terminal Met

[2] = biological target: T2, BGL (Boletopsis grisea lectin), G49N mutant (Boletopsis grisea, UniProt A0A1L2F5J1, G49N)
T2 construct: full-length BGL ORF expressed in E. coli
T2 sequence (A0A1L2F5J1 entry or part of it G49N): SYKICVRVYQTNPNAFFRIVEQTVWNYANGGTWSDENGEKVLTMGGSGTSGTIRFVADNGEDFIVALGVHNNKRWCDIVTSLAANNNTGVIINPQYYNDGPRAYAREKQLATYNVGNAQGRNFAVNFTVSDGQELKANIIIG

[3] = biological target: T3, BGL (Boletopsis grisea lectin), H71E mutant (Boletopsis grisea, UniProt A0A1L2F5J1, H71E)
T3 construct: full-length BGL ORF expressed in E. coli
T3 sequence (A0A1L2F5J1 entry or part of it H71E): as the sequence (A0A1L2F5J1 entry or part of it G49N) above

[4] = biological target: T4, BGL (Boletopsis grisea lectin), S48K mutant (Boletopsis grisea, UniProt A0A1L2F5J1, S48K)
T4 construct: full-length BGL ORF expressed in E. coli
T4 sequence (A0A1L2F5J1 entry or part of it S48K): as the sequence (A0A1L2F5J1 entry or part of it G49N) above

T1 sequence (A0A1L2F5J1 2-143): as the sequence (A0A1L2F5J1 entry or part of it G49N) above

Work on `CC(=O)N[C@H]1C(O)O[C@H](CO)[C@@H](O)[C@@H]1O` (stereo partly shown) [GlcNAc] yielded a Kd [1] of 1.086 ± 0.008 mM, a Kd [2] of 0.91 ± 0.01 mM and a Kd [3] of 2.33 ± 0.08 mM. It also gave a Kd [4] of 1.01 ± 0.02 mM.

Source: publication PMC7794217, “A bi-specific lectin from the mushroom Boletopsis grisea and its application in glycoanalytical workflows” (Scientific Reports, 2021)
